Assay: Water solubility / water-dispersing ability
Type: physicochemical
Settings: dispersed in water, bottle A versus bottle B, visual

Q: For Oc1ccc(C=Cc2cc(O)cc(O)c2)cc1 [known 99% resveratrol, resveratrol], which “Water-dispersing ability (FIG. 1)” value is on record?
A: insoluble in water

From patent publication US10882012B2, “Process for producing a nano resveratrol microemulsion system” (priority 2018, dated 2021)
